From US11278499B2, “Oral drug dosage form comprising various release profiles” (Triastek, Inc., priority 2015, dated 2022)

Assay: Release of benzoic acid from pie-shaped-compartment dosage form, UV 226 nm
Format: physicochemical
Settings: PEG8000 flat tablet with pie shaped compartment; pH 8 Na2HPO4 solution, 37° C., 100 rpm; FIG. 18C
Protocol: The release profile of the benzoic acid from the dosage form was measured as the following method. Na2HPO4 solution of pH 8 was prepared as dissolvent of benzoic acid. Benzoic acid solution of 120 μg/mL was serially diluted to 30 μg/mL, 15 μg/m, 7.5 μg/m, 3.75 μg/mL, and 1.875 μg/mL solutions, whose absorbance at 226 nm was measured using a UV spectrophotometer. The numbers obtained were treated with linear regression to generate a standard curve of benzoic acid concentration with the formula y=0.0599x+0.0347. To measure the released amount of benzoic acid, the dosage form was dissolved in degassed pH 8 Na2HPO4 solution at 37° C.±0.5° C. and […] at 100 rpm. 5 mL solution was collected from the solution at each time point to measure the concentration of benzoic acid with 5 mL dissolvent added back to the solution. The collected solution was filtered through 0.45 um membrane before transferred to an UV spectrophotometer for measuring the absorbance at 226 nm. The percentage of benzoic acid released was calculated using the following formula: […]
Wherein Cn means concentrate measured, Vtmeans total solution volume,
Vs means sample volume, Qbenzoic acid means amout of benzoic acid in the dosage form

O=C(O)c1ccccc1 [benzoic acid, Benzoic acid]
release profile of the benzoic acid: matches a model profile
